Data from PMC3683333, “^11C-LY2428703, a positron emission tomographic radioligand for the metabotropic glutamate receptor 1, is unsuitable for imaging in monkey and human brains” (EJNMMI Research, 2013).

Columns and labels:
[1] = system: mGluR1; experiment: Brain PET at baseline and after mGluR1 blockade, monkey; format: in vivo, rhesus monkeys (Macaca mulatta)
Protocol: Four male rhesus monkeys (Macaca mulatta, 11.7 ± 2.9 kg) were imaged in 13 PET scans. Seven scans were performed at baseline, three scans were performed after receptor blocking to calculate nondisplaceable uptake (VND), and three scans were performed after blockade of the efflux transporters at the blood–brain barrier. Receptors were blocked by mixing ^11C-LY2428703 with an mGluR1 antagonist - either nonradioactive LY2428703 (2.0 mg/kg) or LY2332084 (0.5 mg/kg) - in the same syringe. Efflux transporters were blocked in two scans by injecting DCPQ, which selectively blocks the efflux transporter ABCB1 (P-gp), and in one scan by injecting elacridar, which blocks both ABCB1 (P-gp) and ABCG2 (BCRP).
PET images were acquired using either the high-resolution research tomograph (HRRT) or the FOCUS 220 scanner (Siemens/CPS, Knoxville, TN, USA) for 120 min in 33 frames, with frame durations ranging from 30 s to 5 min, and correcting for attenuation and scatter. About 2 h before the PET scan, anesthesia was initiated with ketamine (10 mg/kg IM) and then maintained with 1% to 3% isoflurane. Electrocardiograph, body temperature, heart rate, and respiration rate were measured throughout the experiment. At baseline, the injected activity was 210 ± 51 MBq (specific activity at time of injection 43.2 ± 25.6 GBq/μmol, mass dose 6.9 ± 4.7 nmol or 0.62 ± 0.35 nmol/kg). Tissue time-activity curves were obtained from semi-automatic regions of interest encompassing the whole cerebellum and the rest of the brain. Brain uptake was expressed as standardized uptake value (SUV). Arterial input function was obtained for eight scans: four at baseline, two after blocking with nonradioactive LY2428703, one after blocking with DCPQ, and one after blocking with elacridar. Blood samples (0.5 mL each) were drawn through a port connected to the femoral artery at 15-s intervals until 2 min, followed by 1-mL samples at 3, 5, 10, 30, 60, 90, and 120 min. The plasma time-activity curve was corrected for the fraction of unchanged radioligand following the procedure detailed above.
Volumes of distribution (VT) were obtained by nonlinear compartmental analysis. Goodness-of-fit by nonlinear least squares analysis was evaluated using the Akaike Information Criterion (AIC) and Model Selection Criterion (MSC). The most appropriate model is that with the smallest AIC and the largest MSC score. Goodness-of-fit by the compartment models was compared with F statistics. A value of P < 0.05 was considered significant for F statistics. The identifiability of kinetic variables was calculated as standard error obtained from the diagonal of the covariance matrix and expressed as a percentage of the rate constant.

[2] = Arterial plasma analysis after injection, human; format: in vivo
Protocol: (§1) Plasma analyses were performed on a reverse-phase chromatography C18 column (Novapak, 4 μm, 100 × 8 mm, Waters Corp. Milford, MA, USA) using Radial-Pak® compression module RCM-100 with a sentry pre-column. Human plasma analyses were performed with a mobile phase of […], at a flow rate of 2.5 mL/min; nonhuman primate plasma samples were analyzed with a mobile phase of MeOH/H2O/Et3N, 72.5:27.5:0.1 by volume, at a flow rate of 1.5 mL/min. To compare the outcome from both systems, elution volume is reported rather than retention time.
Arterial plasma was analyzed as previously described. Briefly, after ^11C-LY2428703 injection into either human or nonhuman primate, the input function was determined by periodically drawing anticoagulated blood samples. Blood aliquots were removed so that the γ-counter could provide information necessary for vascular correction. The remaining blood was then centrifuged, and plasma (450 μL) aliquots were removed and placed in acetonitriles (720 μL/ea) spiked with carrier LY2428703. The samples were mixed well, 100 μL water aliquots were added, and then, the sample was further mixed. The samples were counted in the γ-counter and centrifuged at 10,000×g for 1 min. The clear supernatant liquids were injected onto the radio-HPLC as described above. The precipitates were then counted for radioactivity to allow the calculation of the efficiency of recovery of radioactivity in the acetonitrile. Human plasma samples were separated with a mobile phase of higher polarity ([…]) to ensure that the parent radiochromatographic peak comprised a single radiochemical species.
PET images were acquired using the GE Advance scanner (GE Healthcare, Milwaukee, WI, USA) for 120 min. An 8-min ^68Ge transmission scan was obtained before the injection of the radiotracer for attenuation correction. The mean injected activity was 328 ± 12 MBq. The specific activity at the time of injection was 87.2 ± 34.7 GBq/μmol, which corresponded to 5.5 ± 2.3 nmol (0.082 ± 0.037 nmol/kg) of carrier. Blood samples (1 mL each) were drawn from the radial artery at 15-s intervals until 150 s, followed by 3-mL samples at 3, 4, 6, 8, 10, 15, 20, 30, 40, and 50 min, and 4.5 mL at 60, 75, 90, and 120 min. The unchanged parent fraction in plasma and fP of ^11C-LY2428703 were determined as described above.

[3] = Arterial plasma analysis after injection, monkey; format: in vivo, rhesus monkeys; conditions: after intravenous injection
Protocol: as §1
Arterial plasma was analyzed as previously described. Briefly, after ^11C-LY2428703 injection into either human or nonhuman primate, the input function was determined by periodically drawing anticoagulated blood samples. […] The samples were counted in the γ-counter and centrifuged at 10,000×g for 1 min. […] The precipitates were then counted for radioactivity to allow the calculation of the efficiency of recovery of radioactivity in the acetonitrile. […]
PET images were acquired using either the high-resolution research tomograph (HRRT) or the FOCUS 220 scanner (Siemens/CPS, Knoxville, TN, USA) for 120 min in 33 frames, with frame durations ranging from 30 s to 5 min, and correcting for attenuation and scatter. […] Electrocardiograph, body temperature, heart rate, and respiration rate were measured throughout the experiment. […]

[4] = Pharmacological effects of injection, human; format: in vivo; conditions: three human subjects
Description: Three healthy females participated in the study (29 ± 2-year old, 69 ± 13 kg). All were free from current medical and psychiatric illnesses, as assessed by medical history, physical examination, electrocardiogram, urinalysis including drug screening, and blood tests (complete blood count, serum chemistries, thyroid function test, and antibody screening for syphilis, HIV, and hepatitis B). The National Institutes of Health Central Nervous System Institutional Review Board approved the protocols and the consent forms. Written informed consent was obtained from all subjects.

[5] = biological target: mGluR1 (Homo sapiens, UniProt Q13255); experiment: Saturation binding assay with [^3H]LY456066, human cerebellar membranes; set-up: P2 membrane fractions were prepared from the cerebella of; from tissue; host or cells: human cerebellum, P2 membrane fraction; conditions: humans
Protocol: P2 membrane fractions were prepared from the cerebella of male Sprague–Dawley rats (n = 3), male rhesus monkeys (n = 3), and female humans (n = 4). […] Nonspecific binding was defined by heterologous displacement of 1 μM LY480084 (mGlu1 antagonist) in select wells. Plates were incubated on ice for 75 min and membranes harvested on 0.3% polyethylenimine pretreated Wallac filter mats using a Tomtec Harvester MachII (Tomtec, Hamden, CT, USA). Dissociation constant (KD) and receptor density (Bmax) values were obtained in GraphPad Prism using standard nonlinear one-site binding equations. Data are presented as mean ± SEM (n = 3 to 4); one-way analysis of variance followed by Tukey's post hoc test.

mGluR1 (Homo sapiens, UniProt Q13255), sequence (Q13255 19-1194): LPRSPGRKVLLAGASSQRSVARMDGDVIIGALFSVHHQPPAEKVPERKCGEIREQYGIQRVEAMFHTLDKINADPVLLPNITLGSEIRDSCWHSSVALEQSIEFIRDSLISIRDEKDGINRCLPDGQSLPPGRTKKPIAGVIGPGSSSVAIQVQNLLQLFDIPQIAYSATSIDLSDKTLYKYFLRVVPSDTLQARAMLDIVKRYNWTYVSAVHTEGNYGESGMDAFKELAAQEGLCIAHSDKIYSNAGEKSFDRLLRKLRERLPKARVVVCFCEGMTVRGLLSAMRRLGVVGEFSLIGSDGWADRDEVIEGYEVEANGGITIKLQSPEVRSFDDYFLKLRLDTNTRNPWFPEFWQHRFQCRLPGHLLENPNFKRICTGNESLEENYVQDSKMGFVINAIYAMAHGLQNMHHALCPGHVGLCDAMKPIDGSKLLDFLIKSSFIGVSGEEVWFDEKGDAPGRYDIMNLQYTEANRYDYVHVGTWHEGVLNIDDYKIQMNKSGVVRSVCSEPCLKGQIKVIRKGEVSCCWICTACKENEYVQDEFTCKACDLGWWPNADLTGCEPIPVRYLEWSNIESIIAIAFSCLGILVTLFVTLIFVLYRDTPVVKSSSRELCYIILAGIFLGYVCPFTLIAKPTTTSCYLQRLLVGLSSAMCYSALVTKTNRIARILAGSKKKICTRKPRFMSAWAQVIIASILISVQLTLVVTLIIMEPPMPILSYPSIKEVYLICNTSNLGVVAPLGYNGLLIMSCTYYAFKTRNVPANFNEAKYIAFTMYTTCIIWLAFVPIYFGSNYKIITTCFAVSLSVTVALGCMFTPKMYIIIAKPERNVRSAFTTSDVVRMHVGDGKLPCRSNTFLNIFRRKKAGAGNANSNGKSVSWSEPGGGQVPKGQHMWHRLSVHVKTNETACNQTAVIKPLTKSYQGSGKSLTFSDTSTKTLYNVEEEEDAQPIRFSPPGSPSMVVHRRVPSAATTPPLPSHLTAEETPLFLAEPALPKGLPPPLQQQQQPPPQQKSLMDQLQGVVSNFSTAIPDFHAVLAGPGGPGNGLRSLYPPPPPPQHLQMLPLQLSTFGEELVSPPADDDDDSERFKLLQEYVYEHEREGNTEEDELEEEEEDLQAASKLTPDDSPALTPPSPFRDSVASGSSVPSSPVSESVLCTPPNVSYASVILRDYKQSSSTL

peak uptake in cerebellum ([1]; after mGluR1 blockade): 4.9 ± 0.8 SUV
peak uptake in forebrain ([1]; after mGluR1 blockade): 3.6 ± 1.9 SUV
peak uptake in cerebellum ([1]; baseline): 3.1 ± 1.4 SUV
peak uptake in cerebellum higher than in forebrain ([1]; baseline): about 50%
peak uptake in forebrain ([1]; baseline): 2.2 ± 0.8 SUV
time at which cerebellar uptake decreased to 50% of peak ([1]; baseline): about 20 min
time of peak uptake in cerebellum ([1]; baseline): approximately 2 min
time of peak uptake in forebrain ([1]; baseline): approximately 2 min
mean VT ([1]; baseline scans, two-tissue compartment model): 3.5 ± 1.0 mL/cm^3
VND ([1]; calculated from mGluR1 blocking studies): 4.4 ± 2.9 mL/cm^3
peak plasma concentration [2]: 33 ± 5 SUV
time of peak plasma concentration [2]: 1.5 ± 0 min
radiometabolites in plasma ([2]; at 2 h): approximately 1%
parent radioligand as share of total blood radioactivity ([2]; entire 2-h imaging period): ~99%
time of peak plasma concentration [3]: 1 to 1.5 min
fp × Bmax/KD (=VS), effective BP [5]: 0.016
Structure (SMILES): Cc1c(-c2ccc(O[11CH3])cc2)nsc1NC(=O)[C@@H]1C[C@H]1C [^11C-LY2428703]
pharmacological effects (vital signs, electrocardiogram, laboratory testing, verbal reports) [4]: no pharmacological effects
